For experiment [1], the system named is polyresistant Mtb strains. The settings on record: polyresistant Mtb strains (e.g., INH, STR, EMB); cited from earlier work.
Experiment [2] concerns Mtb Praha 131. Nature of the experiment: microbe, parasite or virus in culture. The format is cell-based. The settings on record: Mycobacterium tuberculosis, read-out: MIC Mtb Praha 131.
The subject of experiment [3] is Mtb 9449/2007. Nature of the experiment: microbe, parasite or virus in culture. The following applies: Mycobacterium tuberculosis, read-out: MIC Mtb 9449/2007. The format is cell-based.
Experiment [4] deals with Mtb Praha 1. Nature of the experiment: microbe, parasite or virus in culture. The format is cell-based. The following applies: Mycobacterium tuberculosis, read-out: MIC Mtb Praha 1.
For experiment [5], the system named is Mtb 7357/1998. Nature of the experiment: microbe, parasite or virus in culture. The format is cell-based. The settings on record: Mycobacterium tuberculosis, read-out: MIC Mtb 7357/1998.
For experiment [6], the system named is Mtb Praha 4. The experiment can be described thus: microbe, parasite or virus in culture. The experiment is classed as cell-based. The settings on record: Mycobacterium tuberculosis, read-out: MIC Mtb Praha 4.
Experiment [7] has as its system Mtb 234/2005. The experiment can be described thus: microbe, parasite or virus in culture. The experiment is classed as cell-based. The settings on record: Mycobacterium tuberculosis, read-out: MIC Mtb 234/2005.
Experiment [8] relates to Mtb 8666/2010. The experiment can be described thus: microbe, parasite or virus in culture. The format is cell-based. The following applies: Mycobacterium tuberculosis, read-out: MIC Mtb 8666/2010.

We go through 8 compounds from PMC12121777 (PLOS One, 2025).

In brackets after ≈: the same amount, converted by molar mass. Like-named read-outs stand apart in the source and are kept apart here.

For `CCCCCCCCCCCCCCCc1nnc(-c2ccncc2)o1` [II], in experiment [1], the “inhibitory concentration (MIC)” value was at least 2.59 µM.
As for `COc1ccc(CNc2nnc(-c3cc([N+](=O)[O-])cc([N+](=O)[O-])c3)o2)cc1` [Compound 7b, 5-(3,5-Dinitrophenyl)-N-(4-methoxybenzyl)-1,3,4-oxadiazol-2-amine], the MIC is at most 0.03 µM in experiment [2] (PRAHA131, 336 h); at most 0.03 µM in experiment [2] (PRAHA131, 504 h); at most 0.03 µM in experiment [3] (9449/2007, 336 h); at most 0.03 µM in experiment [3] (9449/2007, 504 h); at most 0.03 µM in experiment [4] (PRAHA1, 336 h); at most 0.03 µM in experiment [4] (PRAHA1, 504 h). In addition, the MIC in experiment [5] (7357/1998, 336 h) is at most 0.03 µM; in experiment [5] (7357/1998, 504 h) it was at most 0.03 µM; in experiment [6] (PRAHA4, 336 h), at most 0.03 µM; in experiment [6] (PRAHA4, 504 h), at most 0.03 µM; in experiment [7] (234/2005, 336 h), at most 0.03 µM; in experiment [7] (234/2005, 504 h) it was 0.06 µM (≈ 0.0223 µg/mL). For the same compound, the MIC in experiment [8] (8666/2010, 336 h) is at most 0.03 µM; in experiment [8] (8666/2010, 504 h) it was at most 0.03 µM.
Consider `CCCCCCCNc1nnc(-c2cc([N+](=O)[O-])cc([N+](=O)[O-])c2)o1` [Compound 5g, 5-(3,5-Dinitrophenyl)-N-heptyl-1,3,4-oxadiazol-2-amine], for which the MIC was 0.06 µM (≈ 0.021 µg/mL) in experiment [2] (PRAHA131, 336 h); 0.06 µM (≈ 0.021 µg/mL) in experiment [2] (PRAHA131, 504 h); at most 0.03 µM in experiment [3] (9449/2007, 336 h); 0.06 µM (≈ 0.021 µg/mL) in experiment [3] (9449/2007, 504 h); 0.06 µM (≈ 0.021 µg/mL) in experiment [4] (PRAHA1, 336 h); 0.06 µM (≈ 0.021 µg/mL) in experiment [4] (PRAHA1, 504 h). In addition, the MIC in experiment [5] (7357/1998, 336 h) came out at 0.06 µM (≈ 0.021 µg/mL); in experiment [5] (7357/1998, 504 h), 0.06 µM (≈ 0.021 µg/mL); in experiment [6] (PRAHA4, 336 h) it was 0.06 µM (≈ 0.021 µg/mL); in experiment [6] (PRAHA4, 504 h), 0.06 µM (≈ 0.021 µg/mL); in experiment [7] (234/2005, 336 h), 0.06 µM (≈ 0.021 µg/mL); in experiment [7] (234/2005, 504 h), 0.06 µM (≈ 0.021 µg/mL). In addition, the MIC in experiment [8] (8666/2010, 336 h) was at most 0.03 µM; in experiment [8] (8666/2010, 504 h) it was 0.06 µM (≈ 0.021 µg/mL).
Regarding `COc1ccc(CNc2nnc(-c3cc([N+](=O)[O-])cc([N+](=O)[O-])c3)s2)cc1` [Compound 8b, 5-(3,5-Dinitrophenyl)-N-(4-methoxybenzyl)-1,3,4-thiadiazol-2-amine], the MIC is at most 0.03 µM in experiment [2] (PRAHA131, 336 h); at most 0.03 µM in experiment [2] (PRAHA131, 504 h); at most 0.03 µM in experiment [3] (9449/2007, 336 h); at most 0.03 µM in experiment [3] (9449/2007, 504 h); at most 0.03 µM in experiment [4] (PRAHA1, 336 h); at most 0.03 µM in experiment [4] (PRAHA1, 504 h). The MIC in experiment [5] (7357/1998, 336 h) was at most 0.03 µM; in experiment [5] (7357/1998, 504 h), at most 0.03 µM; in experiment [6] (PRAHA4, 336 h) it was at most 0.03 µM; in experiment [6] (PRAHA4, 504 h), at most 0.03 µM; in experiment [7] (234/2005, 336 h), at most 0.03 µM; in experiment [7] (234/2005, 504 h), at most 0.03 µM. Moreover, the MIC in experiment [8] (8666/2010, 336 h) was at most 0.03 µM; in experiment [8] (8666/2010, 504 h), at most 0.03 µM.
On to `CCCCCNc1nnc(-c2cc([N+](=O)[O-])cc([N+](=O)[O-])c2)o1` [Compound 5e, 5-(3,5-Dinitrophenyl)-N-pentyl-1,3,4-oxadiazol-2-amine], for which the MIC came to 0.125 µM (≈ 0.0402 µg/mL) in experiment [2] (PRAHA131, 336 h); 0.125 µM (≈ 0.0402 µg/mL) in experiment [2] (PRAHA131, 504 h); 0.125 µM (≈ 0.0402 µg/mL) in experiment [3] (9449/2007, 336 h); 0.125 µM (≈ 0.0402 µg/mL) in experiment [3] (9449/2007, 504 h); 0.125 µM (≈ 0.0402 µg/mL) in experiment [4] (PRAHA1, 336 h); 0.25 µM (≈ 0.0803 µg/mL) in experiment [4] (PRAHA1, 504 h). In addition, the MIC in experiment [5] (7357/1998, 336 h) is 0.125 µM (≈ 0.0402 µg/mL); in experiment [5] (7357/1998, 504 h) it was 0.125 µM (≈ 0.0402 µg/mL); in experiment [6] (PRAHA4, 336 h), 0.125 µM (≈ 0.0402 µg/mL); in experiment [6] (PRAHA4, 504 h) it was 0.5 µM (≈ 0.161 µg/mL); in experiment [7] (234/2005, 336 h) it was 0.125 µM (≈ 0.0402 µg/mL); in experiment [7] (234/2005, 504 h) it was 0.125 µM (≈ 0.0402 µg/mL). Besides, the MIC in experiment [8] (8666/2010, 336 h) is 0.125 µM (≈ 0.0402 µg/mL); in experiment [8] (8666/2010, 504 h), 0.125 µM (≈ 0.0402 µg/mL).
Consider `CCCCNc1nnc(-c2cc([N+](=O)[O-])cc([N+](=O)[O-])c2)o1` [Compound 5d, N-Butyl-5-(3,5-dinitrophenyl)-1,3,4-oxadiazol-2-amine], for which the MIC in experiment [2] (PRAHA131, 336 h) came out at 0.5 µM (≈ 0.154 µg/mL); in experiment [2] (PRAHA131, 504 h), 1 µM (≈ 0.307 µg/mL); in experiment [3] (9449/2007, 336 h) it was 0.5 µM (≈ 0.154 µg/mL); in experiment [3] (9449/2007, 504 h) it was 0.5 µM (≈ 0.154 µg/mL); in experiment [4] (PRAHA1, 336 h), 1 µM (≈ 0.307 µg/mL); in experiment [4] (PRAHA1, 504 h), 1 µM (≈ 0.307 µg/mL). For the same compound, the MIC is 0.5 µM (≈ 0.154 µg/mL) in experiment [5] (7357/1998, 336 h); 1 µM (≈ 0.307 µg/mL) in experiment [5] (7357/1998, 504 h); 0.5 µM (≈ 0.154 µg/mL) in experiment [6] (PRAHA4, 336 h); 1 µM (≈ 0.307 µg/mL) in experiment [6] (PRAHA4, 504 h); 0.5 µM (≈ 0.154 µg/mL) in experiment [7] (234/2005, 336 h); 1 µM (≈ 0.307 µg/mL) in experiment [7] (234/2005, 504 h). Also, the MIC is 0.5 µM (≈ 0.154 µg/mL) in experiment [8] (8666/2010, 336 h) and 0.5 µM (≈ 0.154 µg/mL) in experiment [8] (8666/2010, 504 h).
In the case of `CCCCCCCCCCCCCCCCCc1nnc(-c2ccncc2)o1` [III], the “inhibitory concentration (MIC)” value in experiment [1] was at least 2.59 µM.
`O=[N+]([O-])c1cc(-c2nnc(NCc3ccc(Cl)cc3Cl)o2)cc([N+](=O)[O-])c1` [Compound 7d, N-(2,4-Dichlorobenzyl)-5-(3,5-dinitrophenyl)-1,3,4-oxadiazol-2-amine]: the MIC came out at 0.125 µM (≈ 0.0513 µg/mL) in experiment [2] (PRAHA131, 336 h); 0.125 µM (≈ 0.0513 µg/mL) in experiment [2] (PRAHA131, 504 h); 0.06 µM (≈ 0.0246 µg/mL) in experiment [3] (9449/2007, 336 h); 0.125 µM (≈ 0.0513 µg/mL) in experiment [3] (9449/2007, 504 h); 0.125 µM (≈ 0.0513 µg/mL) in experiment [4] (PRAHA1, 336 h); 0.125 µM (≈ 0.0513 µg/mL) in experiment [4] (PRAHA1, 504 h). Also, the MIC in experiment [5] (7357/1998, 336 h) was 0.125 µM (≈ 0.0513 µg/mL); in experiment [5] (7357/1998, 504 h), 0.125 µM (≈ 0.0513 µg/mL); in experiment [6] (PRAHA4, 336 h), 0.06 µM (≈ 0.0246 µg/mL); in experiment [6] (PRAHA4, 504 h), 0.125 µM (≈ 0.0513 µg/mL); in experiment [7] (234/2005, 336 h), 0.06 µM (≈ 0.0246 µg/mL); in experiment [7] (234/2005, 504 h), 0.125 µM (≈ 0.0513 µg/mL). Moreover, the MIC worked out at 0.06 µM (≈ 0.0246 µg/mL) in experiment [8] (8666/2010, 336 h) and 0.125 µM (≈ 0.0513 µg/mL) in experiment [8] (8666/2010, 504 h).
